Assay results published in patent US12667103B2, “Methods and compositions comprising herbicidally active compounds and thiocyanate compounds for controlling weed growth” (MUSTGROW BIOLOGICS CORP., priority 2020, dated 2026).

Test system: weed plants
Test: Field trial of weed control: individual weed plants counted on test plots after herbicide treatment
Assay type: in vivo
Conditions: for Incidence of weeds (average count of weed plants per test plot): MustGrow SCN 24.3 kg/acre
Procedure: A total of 8 herbicide treatments were run in a field trial as follows:
RT540®, Bayer CropScience contains 540 g/L of glyphosate as the active ingredient. MustGrow SCN consists of pure commercially purchased thiocyanate in powder form. RT540 and MustGrow SCN were diluted with 10 parts of water and applied using a backpack sprayer to each of the test plots located in central Saskatchewan at the rate indicated in Table 2. Each treatment consisted of triplicate experimental plots (4×20 ft). Weed plant growth was monitored by counting individual weed plants present on each of the test plots over a period of 5 weeks from application.

Compound | Effectiveness in limiting the incidence of weeds, in words (under the conditions of this trial, RT540 0.1-1 L/acre) | Incidence of weeds (average count of weed plants per test plot) (week 1) | Incidence of weeds (average count of weed plants per test plot) (week 2) | Incidence of weeds (average count of weed plants per test plot) (week 3) | Incidence of weeds (average count of weed plants per test plot) (week 4) | Incidence of weeds (average count of weed plants per test plot) (week 5)
O=C(O)CNCP(=O)(O)O [glyphosate, N-(phosphomethyl)glycine, reference compound] | marginally effective |  |  |  |  | 
thiocyanate [MustGrow SCN] |  | 8 | 15 | 75 | 155 | 174
